{"source": "paper PMC4427575", "about": "“Functional screening system for yeast-secreted peptides acting on G-protein coupled receptors” (AMB Express, 2015)", "system": "class A GPCR SST receptor", "assay": "Effect of FLAG fusion on somatostatin (data not shown)", "conditions": "result in words", "data": [{"substance": "somatostatin with FLAG fusion: FLAG fusion of somatostatin, endogenous circular peptide agonist acting on class A GPCR SST receptor", "values": [{"measurement": "effect of the FLAG fusion", "result": "beneficial effect"}]}]}
